These compounds were tested on Plasmodium falciparum (assay: GSK_TCMDC: Inhibition of Plasmodium falciparum 3D7 in whole erythrocytes, using parasite LDH activity as an index of growth.). Settings: Plasmodium falciparum, 3D7.
Format: functional, organism-based

Structure (SMILES)	XC50 [nM]
O=C(Nc1ccccc1)N1CCC(CN2CCOC(c3ccccc3)(c3ccccc3)C2)CC1	206
Cc1cc2c(cc1C(F)(F)F)N(C(=O)Nc1cc(C(=O)NC3CCN(Cc4ccccc4)C3)cc(C(F)(F)F)c1)CC2 (stereo not given)	339
CC(C)(C)c1ccc(CN2CCC(NC(=O)c3ccc(-c4ccccc4Cl)s3)CC2)cc1	1350
COc1ccc2nc(C)cc(NC3Cc4ccccc4C3)c2c1	839
Cc1c(C(=O)N(C)C)sc2c1c(=O)n(Cc1ccccc1)c(=O)n2CC(=O)Nc1ccccc1F	657
CCCC(C)Nc1nc(C)cc(N[C@@H](CC(C)C)C(=O)NC2CCCC2)n1 (stereo not given in full)	1080
Cc1nc(N)nc(N)c1-c1ccc(Cl)cc1	767
COc1cc(Nc2ncc3c(C)nc(-c4cccc(Nc5ccc(CN6CCS(=O)(=O)CC6)cc5)c4)n3n2)cc(OC)c1OC	865
CN1CCCc2ccc(NC(=O)Nc3ccc(Cl)c(Cl)c3)cc2C1	603
COc1cc(C)c(NC(=O)c2cccc3c(=O)c(C)c(-c4ccccc4)oc23)cc1OC	1630
Fc1cc(Cl)ccc1Nc1ccnc2cc(I)ccc12	1130
Cc1noc(C)c1-c1ccc2c(Nc3ccccc3C(C)(C)C)c(C(=O)NC3CCCC3)cnc2c1	1040
CCN(CC)/C(=N/C(=N)Nc1ccc(Br)cc1)NCCCCCCN/C(=N\C(=N)Nc1ccc(Br)cc1)N(CC)CC	384
O=C(NC12CC3CC(CC(C3)C1)C2)C(=O)c1c[nH]c2ccccc12	232
CCn1cc(CN2CCCC(C(=O)Nc3ccc(-c4nc5ccccc5[nH]4)cc3)C2)cn1 (stereo not given)	927
Cc1nc2c(Nc3nc(-c4ccncc4)cs3)ncnc2n1-c1ccccc1Cl	176
CN1CCN(S(=O)(=O)c2ccc3nccc(Nc4ccc(Oc5ccccc5)cc4)c3c2)CC1	818
COC(=O)c1cccc(CNCc2ccc(-c3cccc(-c4nc5cc(C(F)(F)F)ccc5[nH]4)c3)cc2)c1	156
Cn1c(CN2CCC(N3CCc4cc(NC(=O)c5ccco5)ccc43)C2)cc2ccccc21 (stereo not given)	876
Cc1cc(C(=O)NCc2ccc(-c3c(C)noc3C)cc2)n(-c2ccccc2)n1	825
FC(F)(F)c1ccc(CSc2ccc3nnc(-c4ccccn4)n3n2)cc1	817
CCCC(CCC)n1ccc2c3c(N)nc(N)nc3ccc21	4.9
O=c1nc(NCCCNCc2cc3c(Cl)cc(Cl)cc3[nH]2)[nH]c2ccsc12	1120
O=c1cc(NCCCNCc2cccc(OC(F)(F)F)c2)[nH]c2ccccc12	854

Structure (SMILES)	XC50 [nM]
Cc1ccc2nc(Cl)c3cc(C(=O)NCCCN4CCCC4)sc3c2c1	1140
CC1(C)OC[C@]2(C)[C@@H](CC[C@]3(C)C4=CC(=O)CCC4CC[C@@H]23)O1 (stereo not given in full)	282
CCNc1cc(C(=O)N[C@@H](Cc2cccc(F)c2)[C@H](O)CNC(C)CCCC(C)C)cc(N2CCCCS2(=O)=O)c1 (stereo not given in full)	596
CCc1c(CCNCCCCCCNC(C)Cc2ccc3c(c2CC)OCO3)ccc(OC)c1OC (stereo not given)	870
Cc1ccc(NC(=O)c2cc([N+](=O)[O-])ccc2NCc2cccnc2)cc1Cl	1120
CCN(CCCN1CCCC1)c1cc(C)nc(Nc2ccc(Cl)cc2)n1	344
COCCOc1ccc(C(F)(F)F)cc1NC(=O)Cc1c(F)cccc1Cl	1000
CCNc1cc(C(=O)N[C@@H](Cc2ccccc2)[C@H](O)CNC(C)(C)Cc2cccc(Cl)c2)cc(N2CCCCS2(=O)=O)c1	887
Cc1n[nH]c(C)c1C1CCN(CC2CCC(NC(=O)/C=C/c3ccc(Cl)c(Cl)c3)CC2)CC1 (stereo not given)	729
COc1ccc(OC)c(C(O)CNC(C)C)c1 (stereo not given)	56
CCNc1cc(C(=O)N[C@@H](Cc2ccccc2)[C@H](O)CNC(C)(C)CC(C)(C)C)c(F)c(N2CCCCS2(=O)=O)c1	1010
O=C(CC1CCCC1)N(Cc1ccc(-c2ccc(CNC3Cc4ccccc4C3)cc2)cc1)CC1CCCCN1 (stereo not given)	1060
c1ccc(CNc2nc(NCCc3c[nH]cn3)nc(NCc3cccc4ccccc34)n2)cc1	1110
COc1cc2nc(NCCn3ccnc3C)nc(NCCc3ccccc3)c2cc1OC	727
O=C(Nc1cccc(-c2cccc(-c3nc4cc(C(F)(F)F)ccc4[nH]3)c2)c1)c1ccc(=O)[nH]n1	656
CCc1c(C(=O)NC2CCC(N3CCC(c4ccccc4C)CC3)CC2)[nH]c2ccc(OC)cc12 (stereo not given)	808
Cc1ccccc1N1CCN(c2ccc(C(=O)Nc3ccccc3)cn2)CC1	587
CC(OC(=O)c1ccc(C(=O)NCC2CC2)cc1)C(C)(C)C (stereo not given)	791
N#Cc1cc([N+](=O)[O-])ccc1-n1nc(-c2cccc(Cl)c2)n(Cc2ccco2)c1=S	196
Cc1noc(-c2ccccc2)c1NC(=O)N1CCN(CCCCCCNC(=O)/C=C/c2ccc(Cl)c(Cl)c2)CC1	884
CCc1c(CCNCCCCCCNCCc2ccc([N+](=O)[O-])cc2)ccc(O)c1O	783
Oc1ccc2[nH]cc(C3CCN(CCC(c4ccccc4)c4ccccc4)CC3)c2c1	994
CN(C)CCNCc1cccc(-c2ccc3c(Nc4ccc(Oc5ccccn5)cc4)ccnc3c2)c1	233
CC(C)Sc1nc2c(c(=O)n1CCc1ccccc1)C1(CCCCC1)Cc1ccccc1-2	1870

Structure (SMILES)	XC50 [nM]
CN(C)CCCNCc1ccc(-c2ccc(CNCCOc3ccccc3)cc2)cc1	18.6
c1ccc(CCNCc2cccc(-c3ccc(CNc4ccc5ncccc5c4)cc3)c2)cc1	810
CCOC(=O)c1cn(CC)c2cc(F)c(OC3CC4CCC3(C)C4(C)C)cc2c1=O (stereo not given)	928
O=S(=O)(Nc1cccc(CCN2CCCCC2CCN2CCCC2)c1)c1ccc2ccccc2c1 (stereo not given)	1070
Nc1nc(N)c2c(Sc3ccc(F)cc3)cccc2n1	1070
O=C(Nc1ccc(-c2ccc(-c3nc4ccccc4[nH]3)cc2)cc1)Nc1ccc(Cl)c(Cl)c1	98.8
CCC(CC)N1CCN(CC(=O)Nc2ccc([N+](=O)[O-])cc2C(=O)Nc2cccc(OC)c2)CC1	866
COc1ccc(-c2ccc(NC(=O)c3ccc(C#N)cc3)cc2)cc1CN1CCCC1	873
N#Cc1ccc(NC2(C(=O)N3CCN(c4cccc(Cl)c4)CC3)CC2)c2ccccc12	1150
Cc1cc2nc(-c3ccc(C(=O)NCc4ccc(Cl)c(Cl)c4)cc3)[nH]c2cc1C	828
COc1ccccc1NS(=O)(=O)c1cc(C(=O)Nc2ccc(N3CCOCC3)c(S(=O)(=O)Nc3ccccc3Cl)c2)ccc1Cl	832
CN(C)CCCn1cc(C(=O)OC2CC3CCC(C2)N3C)c2cc(-c3ccccc3)ccc21 (stereo not given)	837
CCCCCCCn1c(=N)n(CC(O)c2ccc(Cl)c(Cl)c2)c2ccccc21 (stereo not given)	782
O=C(Nc1ccc(OC2CCN(Cc3ccc(F)cc3)CC2)c(Cl)c1)c1ccccc1	794
N=c1n(Cc2ccccc2)c2ccccc2n1CC(O)c1ccc(Cl)c(Cl)c1 (stereo not given)	828
C=Cc1ccc(-c2c(C)[nH]c(C)c(Br)c2=O)cc1	556
N#Cc1ccc(N(CCOC(=O)c2ccc(Br)s2)Cc2ccccc2C(F)(F)F)cc1C(F)(F)F	1070
Cc1cc(C(F)(F)F)cc(-n2ncc(-c3ccc(C(=O)NCCNCc4ccccc4)cc3)c2N)n1	1070
O=C(Nc1ccc2ccccc2c1)N(CCCn1ccnc1)Cc1csc(-c2ccc(CNCc3ccccc3)cc2)n1	739
Cc1ccc(Nc2nc(C)cc(NC3CCN(C)CC3)n2)cc1	497
O=C(Nc1ccc2c(c1)CCC2)N[C@H]1CCN(Cc2ccc(OCCCN3CCCCC3)cc2)C1	864
Cc1ccc2c(=O)cc(CCc3cccc(F)c3F)n(CC(=O)N(Cc3ccc(-c4ccc(C(F)(F)F)cc4)cc3)C3CCN(C(C)C)CC3)c2n1	776

Reference: ChEMBL document CHEMBL1157539, “Thousands of chemical starting points for antimalarial lead identification” (Nature, 2010)
